Laboratory results reported in patent US20250002489A1, “BIFUNCTIONAL COMPOUNDS FOR DEGRADING ITK VIA UBIQUITIN PROTEOSOME PATHWAY” (NURIX THERAPEUTICS, INC., priority 2021, published 2025).

Molecular target: T1, ITK (Jurkat or Molt4 cells) (Homo sapiens, UniProt Q08881)
T1 construct: either human Jurkat (Clone E6-1 ATCC TIB-152) or Motl4 (ATCC CRL-1552), were plated; endogenous in cells; host or cells: Jurkat Clone E6-1 (ATCC TIB-152) or Molt4 (ATCC CRL-1552)
T1 sequence (Q08881 1-620): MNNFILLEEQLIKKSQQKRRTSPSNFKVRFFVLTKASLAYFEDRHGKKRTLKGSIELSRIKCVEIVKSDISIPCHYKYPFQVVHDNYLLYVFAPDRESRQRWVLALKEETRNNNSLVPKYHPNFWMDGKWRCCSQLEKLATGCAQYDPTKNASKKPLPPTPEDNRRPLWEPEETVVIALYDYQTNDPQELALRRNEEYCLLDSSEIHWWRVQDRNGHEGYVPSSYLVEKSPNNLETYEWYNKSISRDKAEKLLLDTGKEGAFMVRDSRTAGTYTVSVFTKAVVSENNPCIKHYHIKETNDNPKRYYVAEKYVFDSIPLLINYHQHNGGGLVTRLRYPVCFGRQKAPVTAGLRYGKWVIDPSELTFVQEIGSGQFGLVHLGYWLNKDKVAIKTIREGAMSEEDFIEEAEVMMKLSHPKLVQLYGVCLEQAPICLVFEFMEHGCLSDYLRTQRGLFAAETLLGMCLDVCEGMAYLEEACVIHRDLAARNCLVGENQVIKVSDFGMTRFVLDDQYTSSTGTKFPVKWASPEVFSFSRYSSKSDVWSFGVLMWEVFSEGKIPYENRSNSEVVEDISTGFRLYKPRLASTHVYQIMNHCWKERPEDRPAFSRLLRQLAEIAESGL
Test: ITK Degradation MSD (Meso Scale Discovery) Assay
Type: cell-based
Conditions: 4 or 6 hrs incubation; for DC50: best fit IC50 used as DC50
Method: Compound dilution series (7-point, 5-fold dilutions in DMSO, rows B—H with replicate in Column 1/2, 3/4, 5/6, 7, and 8 at 2000× the final required concentrations were prepared in 96-well plate (Falcon, cat. no. 353077). Row A, Column 1-8 were control DMSO. The 2000× solutions ranged from 2 mM to 128 nM (final assay concentration range 1 μM to […]). The 2000×solutions were added to cells in 10 μL volume, for a final DMSO concentration of 0.5% and final assay compound concentration of 1×. For the cells, either human Jurkat (Clone E6-1 ATCC TIB-152) or Motl4 (ATCC CRL-1552), were plated at 1×10^6 cells/mL, 100 μL/well ([…]) in complete RPMI (10% FBS, 1% L-glutamine). The cells were incubated with compounds 26-29 for 4 or 6 hrs at 32° C./6% CO2.
Following incubation, plates were centrifuged at 1200 rpm for 5 min. Supernatant was removed and 50 μL of cell lysis buffer (MSD Tris lysis buffer (R60TX), complete Mini EDTA-free protease inhibitor (Sigma 11836170001), Protease Inhibitor Cocktail (Sigma, P2714), Phosphatase Inhibitor Cocktail 2 and 3 (Sigma, P5726 and P0044), Benzonase (Sigma, E1014)) was added to each well. Plate was sealed and shook at 4° C. for 30 min. Plate was centrifuged and 45 μL was removed for plate assay.
Assay plate preparation: Meso Scale Discovery (MSD) multi-array sm spot 96-well plates (Goat anti-Rabbit L^45-RA), were blocked with 3% BSA blocking buffer (3% Bovine Serum Albumin (Sigma A3059)+TBS 0.2% Tween-20) for one hour with gentle rocking at room temperature. Plate was then washed with 200 μL of 1×TBST (TBS 0.2% Tween-20) three times. After the last wash, all liquid was removed and 50 μL per well of capture antibody (abcam ITK Y402-ab32507) was added to plate at a 1:1000 dilution in blocking buffer (see above). Plate was sealed and rocked at room temperature for 2 hrs. Plate was then washed three times with 200 μL of 1×TBST. After the last wash, all liquid was removed and 45 μL of cell lysate (from above) was added to plate. Plate was sealed and rocked overnight at 4° C. The next day, cell lysates were removed, and assay plate was washed three times with 200 μL of 1×TBST. After the last wash, liquid was removed and detection antibody (CST ITK (2F12) #2380) was added at 50 μL per well at a dilution of 1:1000 in blocking buffer. Plate was sealed and rocked at room temperature for 2 hrs. Plate was washed three times with 200 μL of 1×TBST. After the last wash, all liquid was removed, MSD […] sulfo tag (R32AC-1) was diluted to 1:1000 in blocking buffer. 50 μL was added to each well on the plate. Plate was sealed and incubated at room temperature for one hour. Plate was washed three times with 200 μL of 1×TBST. After last wash, all liquid was removed and 150 μL of 1×MSD Read Buffer T (R92PC) was then added to each well for ECL read out.
For reading ECL signal, plate was read on a Meso Scale Discovery (MSD) MESO Sector S 600 plate reader. Percent ITK was then calculated as described below.
Percent ITK remaining per sample was calculated as follows: […]
Using Graphpad Prism, % ITK remaining values were plotted as a function of compound concentration. To determine DC50 and Dmax values, resulting curves were fit to the Prism curve-fitting equation “log(inhibitor) vs response−Variable slope (four parameters)” (reported best fit value IC50 used as DC50).

DC50	Dmax	Structure (SMILES)
114 nM		Cc1ncsc1-c1ccc(CNC(=O)[C@@H]2C[C@@H](O)CN2C(=O)[C@@H](NC(=O)CCOCCOCCOCCOCCN2CC([C@@H](c3ccccc3)n3cc(NC(=O)c4n[nH]c5c4C[C@@H]4C(F)(F)[C@]4(C)C5)cn3)C2)C(C)(C)C)cc1 [Compound 12, (4aS,5aR)-5,5-difluoro-N-(1-((S)-(1-((S)-17-((2S,4R)-4-hydroxy-2-((4-(4-methylthiazol-5-yl)benzyl)carbamoyl)pyrrolidine-1-carbonyl)-18,18-dimethyl-15-oxo-3,6,9,12-tetraoxa-16-azanonadecyl)azetidin-3-yl)(phenyl)methyl)-1H-pyrazol-4-yl)-5a-methyl-1,4,4a,5,5a,6-hexahydrocyclopropa[f]indazole-3-carboxamide]
134 nM		Cc1ncsc1-c1ccc(CNC(=O)[C@@H]2C[C@@H](O)CN2C(=O)[C@@H](NC(=O)CCOCCOCCOCCOCCOCCOCCC(=O)N2CC([C@@H](c3ccccc3)n3cc(NC(=O)c4n[nH]c5c4C[C@@H]4C(F)(F)[C@]4(C)C5)cn3)C2)C(C)(C)C)cc1 [Compound 14, (4aS,5aR)-5,5-difluoro-N-(1-((S)-(1-((S)-24-((2S,4R)-4-hydroxy-2-((4-(4-methylthiazol-5-yl)benzyl)carbamoyl)pyrrolidine-1-carbonyl)-25,25-dimethyl-22-oxo-4,7,10,13,16,19-hexaoxa-23-azahexacosanoyl)azetidin-3-yl)(phenyl)methyl)-1H-pyrazol-4-yl)-5a-methyl-1,4,4a,5,5a,6-hexahydrocyclopropa[f]indazole-3-carboxamide]
54.7 nM		Cc1ncsc1-c1ccc(CNC(=O)[C@@H]2C[C@@H](O)CN2C(=O)[C@@H](NC(=O)CCOCCOCCOCCC(=O)N2CC([C@@H](c3ccccc3)n3cc(NC(=O)c4n[nH]c5c4C[C@@H]4C(F)(F)[C@]4(C)C5)cn3)C2)C(C)(C)C)cc1 [Compound 15, (4aS,5aR)-5,5-difluoro-N-(1-((S)-(1-((S)-15-((2S,4R)-4-hydroxy-2-((4-(4-methylthiazol-5-yl)benzyl)carbamoyl)pyrrolidine-1-carbonyl)-16,16-dimethyl-13-oxo-4,7,10-trioxa-14-azaheptadecanoyl)azetidin-3-yl)(phenyl)methyl)-1H-pyrazol-4-yl)-5a-methyl-1,4,4a,5,5a,6-hexahydrocyclopropa[f]indazole-3-carboxamide]
479 nM		Cc1ncsc1-c1ccc(CNC(=O)[C@@H]2C[C@@H](O)CN2C(=O)[C@@H](NC(=O)CCOCCC(=O)N2CC([C@@H](c3ccccc3)n3cc(NC(=O)c4n[nH]c5c4C[C@@H]4C(F)(F)[C@]4(C)C5)cn3)C2)C(C)(C)C)cc1 [Compound 16, (4aS,5aR)-5,5-difluoro-N-(1-((S)-(1-(3-(3-(((S)-1-((2S,4R)-4-hydroxy-2-((4-(4-methylthiazol-5-yl)benzyl)carbamoyl)pyrrolidin-1-yl)-3,3-dimethyl-1-oxobutan-2-yl)amino)-3-oxopropoxy)propanoyl)azetidin-3-yl)(phenyl)methyl)-1H-pyrazol-4-yl)-5a-methyl-1,4,4a,5,5a,6-hexahydrocyclopropafindazole-3-carboxamide]
2.6 nM	95.9%	Cc1ncsc1-c1ccc(CNC(=O)[C@@H]2C[C@@H](O)CN2C(=O)[C@@H](NC(=O)C2(F)CC2)C(C)(C)C)c(OCCOCCOCCOCCC(=O)N2CC([C@@H](c3ccccc3)n3cc(NC(=O)c4n[nH]c5c4C[C@@H]4C(F)(F)[C@]4(C)C5)cn3)C2)c1 [Compound 19, (4aS,5aR)-5,5-difluoro-N-(1-((S)-(1-(3-(2-(2-(2-(2-(((2S,4R)-1-((S)-2-(1-fluorocyclopropane-1-carboxamido)-3,3-dimethylbutanoyl)-4-hydroxypyrrolidine-2-carboxamido)methyl)-5-(4-methylthiazol-5-yl)phenoxy)ethoxy)ethoxy)ethoxy)propanoyl)azetidin-3-yl)(phenyl)methyl)-1H-pyrazol-4-yl)-5a-methyl-1,4,4a,5,5a,6-hexahydrocyclopropa[f]indazole-3-carboxamide]

Further lines, the compound ahead of its results:

Structure (SMILES)	DC50	Dmax
CN[C@@H](C)C(=O)N[C@H](C(=O)N1CCC[C@H]1c1nc(C(=O)c2cccc(OCCOCCN3CC([C@@H](c4ccccc4)n4cc(NC(=O)c5n[nH]c6c5C[C@@H]5C(F)(F)[C@]5(C)C6)cn4)C3)c2)cs1)C1CCCCC1 [Compound 11, (4aS,5aR)—N-(1-((S)-(1-(2-(2-(3-(2-((S)-1-((S)-2-cyclohexyl-2-((S)-2-(methylamino)propanamido)acetyl)pyrrolidin-2-yl)thiazole-4-carbonyl)phenoxy)ethoxy)ethyl)azetidin-3-yl)(phenyl)methyl)-1H-pyrazol-4-yl)-5,5-difluoro-5a-methyl-1,4,4a,5,5a,6-hexahydrocyclopropa[f]indazole-3-carboxamide]	10.7 nM	
Cc1ncsc1-c1ccc(CNC(=O)[C@@H]2C[C@@H](O)CN2C(=O)[C@@H](NC(=O)C2(F)CC2)C(C)(C)C)c(OCCCCCCCC(=O)N2CC([C@@H](c3ccccc3)n3cc(NC(=O)c4n[nH]c5c4C[C@@H]4C(F)(F)[C@]4(C)C5)cn3)C2)c1 [Compound 20, (4aS,5aR)-5,5-difluoro-N-(1-((S)-(1-(8-(2-(((2S,4R)-1-((S)-2-(1-fluorocyclopropane-1-carboxamido)-3,3-dimethylbutanoyl)-4-hydroxypyrrolidine-2-carboxamido)methyl)-5-(4-methylthiazol-5-yl)phenoxy)octanoyl)azetidin-3-yl)(phenyl)methyl)-1H-pyrazol-4-yl)-5a-methyl-1,4,4a,5,5a,6-hexahydrocyclopropa[f]indazole-3-carboxamide]	1.27 nM	94.6%
Cc1ncsc1-c1ccc([C@H](C)NC(=O)[C@@H]2C[C@@H](O)CN2C(=O)[C@@H](NC(=O)c2ncc(N3CCC(C(=O)N4CC([C@@H](c5ccccc5)n5cc(NC(=O)c6n[nH]c7c6C[C@@H]6C(F)(F)[C@]6(C)C7)cn5)C4)CC3)cn2)C(C)(C)C)cc1 [Compound 21, (4aS,5aR)-5,5-difluoro-N-(1-((S)-(1-(1-(2-(((S)-1-((2S,4R)-4-hydroxy-2-(((S)-1-(4-(4-methylthiazol-5-yl)phenyl)ethyl)carbamoyl)pyrrolidin-1-yl)-3,3-dimethyl-1-oxobutan-2-yl)carbamoyl)pyrimidin-5-yl)piperidine-4-carbonyl)azetidin-3-yl)(phenyl)methyl)-1H-pyrazol-4-yl)-5a-methyl-1,4,4a,5,5a,6-hexahydrocyclopropa[f]indazole-3-carboxamide]	64.7 nM	95%
